# Assay results taken from PubChem BioAssay (NCI).
#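 Exposure lasted 48 hours, with cells grown in 96-well plates and compounds tested at five concentrations. TGI denotes the concentration required for complete inhibition of growth.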
# How the values were obtained:
# Test in all cases: NCI-60 cell line screen, 48 h
# OVCAR-4 ovarian = test system: OVCAR-4 ovarian
# M14 melanoma = test system: M14 melanoma
# SNB-19 CNS = test system: SNB-19 CNS
# CCRF-CEM leukemia = test system: CCRF-CEM leukemia
# UACC-62 melanoma = test system: UACC-62 melanoma
# HOP-18 NSCLC = test system: HOP-18 NSCLC
# LXFL 529 NSCLC = test system: LXFL 529 NSCLC
# IGROV1 ovarian = test system: IGROV1 ovarian
# DMS 273 small cell lung = test system: DMS 273 small cell lung
# ACHN renal = test system: ACHN renal
# MOLT-4 leukemia = test system: MOLT-4 leukemia
# SF-295 CNS = test system: SF-295 CNS
# UO-31 renal = test system: UO-31 renal
# HL-60(TB) leukemia = test system: HL-60(TB) leukemia
# SR leukemia = test system: SR leukemia
# RXF-631 renal = test system: RXF-631 renal
# A498 renal = test system: A498 renal
# HOP-62 NSCLC = test system: HOP-62 NSCLC
# DLD-1 colon = test system: DLD-1 colon
# OVCAR-3 ovarian = test system: OVCAR-3 ovarian
# HCC-2998 colon = test system: HCC-2998 colon
# SNB-78 CNS = test system: SNB-78 CNS
# SK-OV-3 ovarian = test system: SK-OV-3 ovarian
# RPMI-8226 leukemia = test system: RPMI-8226 leukemia
# HCT-116 colon = test system: HCT-116 colon
# SF-539 CNS = test system: SF-539 CNS
# LOX IMVI melanoma = test system: LOX IMVI melanoma
# U251 CNS = test system: U251 CNS
# K-562 leukemia = test system: K-562 leukemia
# HCT-15 colon = test system: HCT-15 colon
# SN12C renal = test system: SN12C renal
# 786-0 renal = test system: 786-0 renal
# KM12 colon = test system: KM12 colon
# SW-620 colon = test system: SW-620 colon
# COLO 205 colon = test system: COLO 205 colon
# HT29 colon = test system: HT29 colon
# M19-MEL melanoma = test system: M19-MEL melanoma
# A549 NSCLC = test system: A549 NSCLC
# MALME-3M melanoma = test system: MALME-3M melanoma
# SK-MEL-5 melanoma = test system: SK-MEL-5 melanoma
# SK-MEL-28 melanoma = test system: SK-MEL-28 melanoma
# OVCAR-8 ovarian = test system: OVCAR-8 ovarian
# NCI-H460 lung = test system: NCI-H460 lung
# EKVX NSCLC = test system: EKVX NSCLC
# NCI-H23 lung = test system: NCI-H23 lung
# RXF 393 renal = test system: RXF 393 renal
# TK-10 renal = test system: TK-10 renal
# HOP-92 NSCLC = test system: HOP-92 NSCLC
# SF-268 CNS = test system: SF-268 CNS
# XF 498 CNS = test system: XF 498 CNS
# KM20L2 colon = test system: KM20L2 colon
# DMS 114 small cell lung = test system: DMS 114 small cell lung
# UACC-257 melanoma = test system: UACC-257 melanoma
# OVCAR-5 ovarian = test system: OVCAR-5 ovarian
# CAKI-1 renal = test system: CAKI-1 renal
# NCI-H522 lung = test system: NCI-H522 lung
# SK-MEL-2 melanoma = test system: SK-MEL-2 melanoma
# SNB-75 CNS = test system: SNB-75 CNS
# NCI-H226 lung = test system: NCI-H226 lung
smiles,measurement,setting,value
COc1ccc(O)cc1C=O,TGI,OVCAR-4 ovarian,> 100 µM
same,TGI,M14 melanoma,> 100 µM
same,TGI,SNB-19 CNS,> 100 µM
same,TGI,CCRF-CEM leukemia,> 100 µM
same,TGI,UACC-62 melanoma,> 100 µM
same,TGI,HOP-18 NSCLC,> 100 µM
same,TGI,LXFL 529 NSCLC,> 100 µM
same,TGI,IGROV1 ovarian,> 100 µM
same,TGI,DMS 273 small cell lung,> 100 µM
same,TGI,ACHN renal,> 100 µM
same,TGI,MOLT-4 leukemia,> 100 µM
same,TGI,SF-295 CNS,> 100 µM
same,TGI,UO-31 renal,> 100 µM
same,TGI,HL-60(TB) leukemia,54.9 µM
same,TGI,SR leukemia,92.3 µM
same,TGI,RXF-631 renal,> 100 µM
same,TGI,A498 renal,> 100 µM
same,TGI,HOP-62 NSCLC,> 100 µM
same,TGI,DLD-1 colon,> 100 µM
same,TGI,OVCAR-3 ovarian,> 100 µM
same,TGI,HCC-2998 colon,> 100 µM
same,TGI,SNB-78 CNS,> 100 µM
same,TGI,SK-OV-3 ovarian,> 100 µM
same,TGI,RPMI-8226 leukemia,> 100 µM
same,TGI,HCT-116 colon,> 100 µM
same,TGI,SF-539 CNS,> 100 µM
same,TGI,LOX IMVI melanoma,> 100 µM
same,TGI,U251 CNS,> 100 µM
same,TGI,K-562 leukemia,> 100 µM
same,TGI,HCT-15 colon,> 100 µM
same,TGI,SN12C renal,> 100 µM
same,TGI,786-0 renal,> 100 µM
same,TGI,KM12 colon,> 100 µM
same,TGI,SW-620 colon,> 100 µM
same,TGI,COLO 205 colon,> 100 µM
same,TGI,HT29 colon,> 100 µM
same,TGI,M19-MEL melanoma,> 100 µM
same,TGI,A549 NSCLC,> 100 µM
same,TGI,MALME-3M melanoma,> 100 µM
same,TGI,SK-MEL-5 melanoma,> 100 µM
same,TGI,SK-MEL-28 melanoma,> 100 µM
same,TGI,OVCAR-8 ovarian,> 100 µM
same,TGI,NCI-H460 lung,> 100 µM
same,TGI,EKVX NSCLC,> 100 µM
same,TGI,NCI-H23 lung,> 100 µM
same,TGI,RXF 393 renal,> 100 µM
same,TGI,TK-10 renal,> 100 µM
same,TGI,HOP-92 NSCLC,> 100 µM
same,TGI,SF-268 CNS,> 100 µM
same,TGI,XF 498 CNS,> 100 µM
same,TGI,KM20L2 colon,> 100 µM
same,TGI,DMS 114 small cell lung,> 100 µM
same,TGI,UACC-257 melanoma,> 100 µM
same,TGI,OVCAR-5 ovarian,> 100 µM
O=C1C=Cc2c(-c3ccccc3)oc3cccc1c23,TGI,OVCAR-4 ovarian,> 100 µM
same,TGI,M14 melanoma,> 100 µM
same,TGI,SNB-19 CNS,> 100 µM
same,TGI,CCRF-CEM leukemia,64.6 µM
same,TGI,UACC-62 melanoma,99.1 µM
same,TGI,CAKI-1 renal,48.5 µM
same,TGI,HOP-18 NSCLC,> 100 µM
same,TGI,NCI-H522 lung,> 81 µM
same,TGI,LXFL 529 NSCLC,> 100 µM
same,TGI,IGROV1 ovarian,> 100 µM
same,TGI,DMS 273 small cell lung,> 100 µM
same,TGI,ACHN renal,> 76.6 µM
same,TGI,MOLT-4 leukemia,19.5 µM
same,TGI,SK-MEL-2 melanoma,> 100 µM
same,TGI,SF-295 CNS,> 100 µM
same,TGI,UO-31 renal,> 82.6 µM
same,TGI,HL-60(TB) leukemia,27.9 µM
same,TGI,SR leukemia,> 54.4 µM
same,TGI,RXF-631 renal,> 100 µM
same,TGI,A498 renal,> 100 µM
same,TGI,HOP-62 NSCLC,> 100 µM
same,TGI,DLD-1 colon,> 100 µM
same,TGI,OVCAR-3 ovarian,> 100 µM
same,TGI,HCC-2998 colon,> 100 µM
same,TGI,SNB-78 CNS,> 100 µM
same,TGI,SK-OV-3 ovarian,> 80.2 µM
same,TGI,SNB-75 CNS,81.8 µM
same,TGI,RPMI-8226 leukemia,19 µM
same,TGI,HCT-116 colon,> 73.1 µM
same,TGI,SF-539 CNS,> 100 µM
same,TGI,LOX IMVI melanoma,> 52.7 µM
same,TGI,U251 CNS,> 100 µM
same,TGI,K-562 leukemia,48.1 µM
same,TGI,HCT-15 colon,> 75.4 µM
same,TGI,SN12C renal,> 100 µM
same,TGI,786-0 renal,> 100 µM
same,TGI,KM12 colon,> 100 µM
same,TGI,SW-620 colon,> 100 µM
same,TGI,COLO 205 colon,> 82.1 µM
same,TGI,HT29 colon,> 100 µM
same,TGI,NCI-H226 lung,> 70.9 µM
same,TGI,M19-MEL melanoma,> 100 µM
same,TGI,A549 NSCLC,> 100 µM
same,TGI,MALME-3M melanoma,> 100 µM
same,TGI,SK-MEL-5 melanoma,> 100 µM
same,TGI,SK-MEL-28 melanoma,> 100 µM
same,TGI,OVCAR-8 ovarian,> 100 µM
same,TGI,NCI-H460 lung,> 80.5 µM
same,TGI,EKVX NSCLC,15.5 µM
same,TGI,NCI-H23 lung,62.9 µM
same,TGI,RXF 393 renal,> 69 µM
same,TGI,TK-10 renal,> 92.2 µM
same,TGI,HOP-92 NSCLC,73.2 µM
same,TGI,SF-268 CNS,> 100 µM
same,TGI,XF 498 CNS,67.7 µM
same,TGI,KM20L2 colon,> 100 µM
same,TGI,DMS 114 small cell lung,89 µM
same,TGI,UACC-257 melanoma,> 100 µM
same,TGI,OVCAR-5 ovarian,> 96 µM
